Reference: ChEMBL document CHEMBL5653615 (J Biol Chem, 2013)

Legend:
[1] = biological target: Activin receptor type-1-like (Homo sapiens) (UniProt P37023); experiment: Inhibition of human ALK1 at 1.82 nM by HotSpot assay relative to control
[2] = biological target: T1, Serine/threonine-protein kinase BRSK1 (Homo sapiens) (UniProt Q8TDC3); experiment: Inhibition of human BRSK1 at 1.82 nM by HotSpot assay relative to control
T1 sequence (whole entry): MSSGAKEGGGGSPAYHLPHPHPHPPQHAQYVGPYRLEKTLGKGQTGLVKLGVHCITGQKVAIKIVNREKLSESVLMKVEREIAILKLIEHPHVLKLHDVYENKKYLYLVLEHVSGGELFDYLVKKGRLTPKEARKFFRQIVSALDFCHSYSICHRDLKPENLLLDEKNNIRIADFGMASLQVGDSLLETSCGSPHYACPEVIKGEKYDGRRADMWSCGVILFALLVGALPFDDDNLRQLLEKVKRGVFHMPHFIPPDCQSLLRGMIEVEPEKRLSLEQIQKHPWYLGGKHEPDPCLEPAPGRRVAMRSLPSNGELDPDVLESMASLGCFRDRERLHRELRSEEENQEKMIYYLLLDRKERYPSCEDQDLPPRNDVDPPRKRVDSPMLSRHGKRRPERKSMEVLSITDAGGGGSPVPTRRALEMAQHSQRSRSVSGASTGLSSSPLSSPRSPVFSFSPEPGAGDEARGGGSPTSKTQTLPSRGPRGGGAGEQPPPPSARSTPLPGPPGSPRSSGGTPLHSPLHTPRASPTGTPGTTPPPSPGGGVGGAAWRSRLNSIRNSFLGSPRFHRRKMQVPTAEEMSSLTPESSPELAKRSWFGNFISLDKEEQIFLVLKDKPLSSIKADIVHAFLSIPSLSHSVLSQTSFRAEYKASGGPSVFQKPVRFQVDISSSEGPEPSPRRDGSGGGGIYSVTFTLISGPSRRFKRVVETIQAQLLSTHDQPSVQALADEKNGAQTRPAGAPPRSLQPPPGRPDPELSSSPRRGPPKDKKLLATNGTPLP

[3] = biological target: CDK4/Cyclin D3 (Homo sapiens) (UniProt P11802+P30281); experiment: Inhibition of human CDK4/cyclin D3 at 1.82 nM by HotSpot assay relative to control; assay type: protein-complex assay
[4] = biological target: Mitogen-activated protein kinase kinase kinase kinase 5 (Homo sapiens) (UniProt Q9Y4K4); experiment: Inhibition of human KHS at 1.82 nM by HotSpot assay relative to control
[5] = biological target: Serine/threonine-protein kinase pim-2 (Homo sapiens) (UniProt Q9P1W9); experiment: Inhibition of human PIM2 at 1.82 nM by HotSpot assay relative to control
[6] = biological target: Protein kinase C eta type (Homo sapiens) (UniProt P24723); experiment: Inhibition of human PKCeta at 1.82 nM by HotSpot assay relative to control
[7] = biological target: T2, Serine/threonine-protein kinase D3 (Homo sapiens) (UniProt O94806); experiment: Inhibition of human PRKD3 at 1.82 nM by HotSpot assay relative to control
T2 sequence (whole entry): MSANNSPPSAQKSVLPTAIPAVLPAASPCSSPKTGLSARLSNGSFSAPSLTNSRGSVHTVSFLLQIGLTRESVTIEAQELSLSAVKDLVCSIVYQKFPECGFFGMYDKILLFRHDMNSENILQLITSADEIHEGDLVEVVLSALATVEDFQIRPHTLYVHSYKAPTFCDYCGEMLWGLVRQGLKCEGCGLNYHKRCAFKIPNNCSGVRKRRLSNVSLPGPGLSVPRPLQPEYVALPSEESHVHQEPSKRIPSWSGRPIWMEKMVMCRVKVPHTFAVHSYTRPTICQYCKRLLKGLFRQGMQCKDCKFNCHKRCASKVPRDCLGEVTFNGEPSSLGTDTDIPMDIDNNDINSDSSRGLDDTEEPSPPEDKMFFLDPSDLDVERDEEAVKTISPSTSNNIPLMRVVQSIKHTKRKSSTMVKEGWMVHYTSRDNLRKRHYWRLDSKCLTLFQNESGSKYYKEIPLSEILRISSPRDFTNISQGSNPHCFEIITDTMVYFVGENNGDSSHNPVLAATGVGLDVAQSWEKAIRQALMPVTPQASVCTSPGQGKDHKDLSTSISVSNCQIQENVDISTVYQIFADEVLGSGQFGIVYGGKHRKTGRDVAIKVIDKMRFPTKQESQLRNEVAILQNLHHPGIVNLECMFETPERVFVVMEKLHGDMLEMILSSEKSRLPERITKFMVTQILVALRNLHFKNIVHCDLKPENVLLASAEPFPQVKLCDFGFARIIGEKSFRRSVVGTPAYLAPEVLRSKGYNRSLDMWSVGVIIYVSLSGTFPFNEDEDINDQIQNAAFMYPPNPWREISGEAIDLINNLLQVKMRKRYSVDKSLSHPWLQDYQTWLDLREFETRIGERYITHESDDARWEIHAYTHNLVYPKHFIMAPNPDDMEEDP

[8] = biological target: T3, Serine/threonine-protein kinase TAO3 (Homo sapiens) (UniProt Q9H2K8); experiment: Inhibition of human JIK at 1.82 nM by HotSpot assay relative to control
T3 sequence (whole entry): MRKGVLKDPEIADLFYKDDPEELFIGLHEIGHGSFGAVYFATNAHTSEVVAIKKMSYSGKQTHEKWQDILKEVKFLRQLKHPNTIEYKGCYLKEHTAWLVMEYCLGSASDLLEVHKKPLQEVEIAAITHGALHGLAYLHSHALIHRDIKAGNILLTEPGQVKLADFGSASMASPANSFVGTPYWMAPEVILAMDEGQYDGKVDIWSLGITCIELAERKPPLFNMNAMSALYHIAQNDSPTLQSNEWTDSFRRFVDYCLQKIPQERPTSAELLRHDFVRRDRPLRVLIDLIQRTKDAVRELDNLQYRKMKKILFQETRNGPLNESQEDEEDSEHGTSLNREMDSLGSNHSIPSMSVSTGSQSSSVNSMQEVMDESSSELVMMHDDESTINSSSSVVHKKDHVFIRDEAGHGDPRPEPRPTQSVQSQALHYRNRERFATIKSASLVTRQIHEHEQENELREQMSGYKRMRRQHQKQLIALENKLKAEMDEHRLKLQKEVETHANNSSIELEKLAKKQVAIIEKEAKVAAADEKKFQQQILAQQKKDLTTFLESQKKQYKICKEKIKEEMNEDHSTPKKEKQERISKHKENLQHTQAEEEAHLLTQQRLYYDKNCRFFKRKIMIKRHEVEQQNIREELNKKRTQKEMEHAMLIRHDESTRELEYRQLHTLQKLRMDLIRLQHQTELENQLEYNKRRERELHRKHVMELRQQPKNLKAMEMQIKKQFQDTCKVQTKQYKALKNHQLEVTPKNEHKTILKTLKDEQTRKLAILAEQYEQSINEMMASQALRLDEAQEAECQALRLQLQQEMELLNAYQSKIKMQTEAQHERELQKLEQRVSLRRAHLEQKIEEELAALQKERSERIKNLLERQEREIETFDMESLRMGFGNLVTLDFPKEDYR

[9] = biological target: Mitogen-activated protein kinase kinase kinase 7 (Homo sapiens) (UniProt O43318); details: dose 1.82 nM
Chain of Mitogen-activated protein kinase kinase kinase 7 (Homo sapiens) (O43318 whole entry, looked up): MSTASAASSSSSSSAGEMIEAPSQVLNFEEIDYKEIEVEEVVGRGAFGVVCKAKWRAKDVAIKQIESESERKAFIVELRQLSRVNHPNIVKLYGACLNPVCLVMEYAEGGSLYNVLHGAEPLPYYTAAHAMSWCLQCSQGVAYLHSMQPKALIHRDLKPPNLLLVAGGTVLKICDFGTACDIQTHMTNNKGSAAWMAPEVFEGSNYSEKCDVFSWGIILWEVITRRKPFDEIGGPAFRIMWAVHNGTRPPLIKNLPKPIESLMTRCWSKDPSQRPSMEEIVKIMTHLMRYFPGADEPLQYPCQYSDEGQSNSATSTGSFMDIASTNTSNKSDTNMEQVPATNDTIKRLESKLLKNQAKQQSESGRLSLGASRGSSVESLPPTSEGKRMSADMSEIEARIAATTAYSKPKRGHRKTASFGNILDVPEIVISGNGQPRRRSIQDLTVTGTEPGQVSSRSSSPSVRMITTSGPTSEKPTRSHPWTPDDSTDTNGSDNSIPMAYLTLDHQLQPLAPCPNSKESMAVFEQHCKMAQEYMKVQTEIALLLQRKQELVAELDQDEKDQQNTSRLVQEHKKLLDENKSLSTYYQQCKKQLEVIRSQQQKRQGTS
Description: Inhibition of human TAK1 at 1.82 nM by HotSpot assay relative to control

Chain of Protein kinase C eta type (Homo sapiens) (P24723 whole entry): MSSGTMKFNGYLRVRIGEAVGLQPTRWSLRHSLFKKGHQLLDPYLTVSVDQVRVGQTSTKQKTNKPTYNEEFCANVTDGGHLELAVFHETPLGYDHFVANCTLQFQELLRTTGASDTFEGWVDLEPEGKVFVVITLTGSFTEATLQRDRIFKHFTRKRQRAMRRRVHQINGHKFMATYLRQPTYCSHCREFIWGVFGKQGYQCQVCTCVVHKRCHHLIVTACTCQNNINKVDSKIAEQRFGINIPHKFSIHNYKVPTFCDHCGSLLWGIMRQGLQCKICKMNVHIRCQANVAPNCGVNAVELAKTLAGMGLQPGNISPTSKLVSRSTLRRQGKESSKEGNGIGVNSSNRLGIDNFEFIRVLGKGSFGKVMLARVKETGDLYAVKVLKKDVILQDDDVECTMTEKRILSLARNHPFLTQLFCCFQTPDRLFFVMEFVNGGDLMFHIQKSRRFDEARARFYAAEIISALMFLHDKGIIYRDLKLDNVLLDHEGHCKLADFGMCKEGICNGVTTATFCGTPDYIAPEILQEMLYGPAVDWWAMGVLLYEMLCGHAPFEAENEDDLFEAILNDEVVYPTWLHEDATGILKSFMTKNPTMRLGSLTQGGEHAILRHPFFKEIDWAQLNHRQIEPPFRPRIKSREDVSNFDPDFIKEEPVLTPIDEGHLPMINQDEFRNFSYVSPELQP
Chain of Activin receptor type-1-like (Homo sapiens) (P37023 whole entry): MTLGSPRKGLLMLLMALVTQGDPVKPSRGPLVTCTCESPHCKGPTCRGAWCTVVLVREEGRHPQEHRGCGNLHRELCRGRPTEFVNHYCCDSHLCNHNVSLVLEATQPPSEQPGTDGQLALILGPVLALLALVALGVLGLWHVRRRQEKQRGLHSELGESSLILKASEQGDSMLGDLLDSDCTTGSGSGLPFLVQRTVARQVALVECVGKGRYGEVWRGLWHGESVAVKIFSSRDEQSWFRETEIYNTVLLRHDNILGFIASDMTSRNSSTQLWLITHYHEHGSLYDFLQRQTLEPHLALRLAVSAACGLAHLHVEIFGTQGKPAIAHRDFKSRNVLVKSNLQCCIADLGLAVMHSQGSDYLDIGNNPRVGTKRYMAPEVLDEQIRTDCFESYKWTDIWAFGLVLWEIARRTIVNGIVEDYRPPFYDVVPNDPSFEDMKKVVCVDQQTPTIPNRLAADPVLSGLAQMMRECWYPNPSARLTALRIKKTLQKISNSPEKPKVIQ
Chain of Serine/threonine-protein kinase pim-2 (Homo sapiens) (Q9P1W9 whole entry, looked up): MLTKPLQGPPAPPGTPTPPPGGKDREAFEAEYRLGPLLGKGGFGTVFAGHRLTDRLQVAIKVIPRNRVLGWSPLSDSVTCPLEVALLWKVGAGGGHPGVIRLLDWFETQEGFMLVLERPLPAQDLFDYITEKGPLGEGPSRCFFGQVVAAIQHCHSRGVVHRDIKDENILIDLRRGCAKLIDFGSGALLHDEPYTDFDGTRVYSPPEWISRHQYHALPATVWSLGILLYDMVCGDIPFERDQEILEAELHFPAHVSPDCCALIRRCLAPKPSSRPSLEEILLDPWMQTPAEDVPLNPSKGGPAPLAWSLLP
Chain of Mitogen-activated protein kinase kinase kinase kinase 5 (Homo sapiens) (Q9Y4K4 whole entry, looked up): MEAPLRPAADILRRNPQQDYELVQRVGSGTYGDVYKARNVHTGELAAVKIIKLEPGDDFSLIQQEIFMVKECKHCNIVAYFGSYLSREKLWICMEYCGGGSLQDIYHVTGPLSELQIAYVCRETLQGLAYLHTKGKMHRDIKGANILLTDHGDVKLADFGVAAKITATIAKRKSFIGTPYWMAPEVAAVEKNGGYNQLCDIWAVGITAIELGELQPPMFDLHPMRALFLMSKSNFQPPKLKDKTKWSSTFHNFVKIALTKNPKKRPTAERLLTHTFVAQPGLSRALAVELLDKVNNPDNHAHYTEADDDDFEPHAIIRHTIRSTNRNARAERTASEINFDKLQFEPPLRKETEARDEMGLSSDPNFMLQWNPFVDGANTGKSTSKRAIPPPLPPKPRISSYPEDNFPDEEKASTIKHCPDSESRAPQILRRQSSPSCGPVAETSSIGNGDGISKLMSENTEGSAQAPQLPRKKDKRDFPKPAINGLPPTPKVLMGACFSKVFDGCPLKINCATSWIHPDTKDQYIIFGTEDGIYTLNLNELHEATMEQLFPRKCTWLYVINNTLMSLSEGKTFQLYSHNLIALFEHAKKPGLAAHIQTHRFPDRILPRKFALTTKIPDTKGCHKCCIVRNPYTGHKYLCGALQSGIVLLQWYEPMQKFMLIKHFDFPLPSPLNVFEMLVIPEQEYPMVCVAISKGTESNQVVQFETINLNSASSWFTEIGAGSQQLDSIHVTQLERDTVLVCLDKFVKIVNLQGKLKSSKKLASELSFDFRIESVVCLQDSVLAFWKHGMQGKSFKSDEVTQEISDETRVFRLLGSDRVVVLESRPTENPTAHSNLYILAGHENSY

SMILES: C[C@@]1(C(=O)Nc2ccc(F)nc2)CCCN1c1nc(Nc2cc(C3CC3)n[nH]2)c2cccn2n1
- inhibition [1]: 0.3%
- inhibition [2]: -0.42%
- inhibition [3]: -0.76%
- inhibition [4]: -3.57%
- inhibition [5]: -3.22%
- inhibition [6]: -0.87%
- inhibition [7]: 2.81%
- inhibition [8]: 4.12%
- inhibition [9]: 3.35%
